From patent US12486489B2, “Culture medium for testing drug resistance of H.pylori as well as preparation method and use thereof” (priority 2022, dated 2025)

Tested on: clinical H. pylori strain
Assay: Drug resistance testing of clinical specimens on characteristic culture medium (discoloration after 36 hours)
Format: cell-based, Helicobacter pylori
Method: The characteristic culture media (A, B, C, D, E) are cultivated at a constant temperature of 37° C. for 36 hours in a three gas incubator. The characteristic culture media are removed and placed in a natural environment for 30 minutes to observe whether there are discolorations at the point of the culture medium where the specimen is dropped in. […] Another 100 μL of the specimen is taken and coated on Columbia solid culture medium and cultivated in a three gas incubator at a constant temperature of 37° C. for 3 days to 5 days. The number of colonies on the plate is counted to determine the initial inoculation amount. The micro dilution method is adopted to test the MIC of clinical specimen H. pylori, the test is meaningful only when there is no bacterial growth in the negative control well without bacteria and there is bacterial growth in the positive well with bacteria but without antibiotics.
(1) Transfer liquid preparation: after sterilization and cooling, BHI culture medium is added with 10% calf serum, followed by 30% glycerol to prepare H. pylori preservation solution. On this basis, 1% H. pylori selective additive is added to prepare the transfer liquid. 1 mL of transfer solution is taken into a sterile EP tube, and 6-8 sterilized small steel balls are poured into the EP tube for the subsequent use.
(3) Specimen acquisition: a biopsy tissue group is obtained from the gastric antrum and a small curvature side of the gastric body through a gastroscopy biopsy passage and placed into an EP tube (strictly sterile operation). The biopsy tissue is placed on the ice surface and transferred as soon as possible (within 2 hours) to complete the subsequent steps.
(4) Preparation of bacterial solution containing tissue: the EP tube containing tissue is placed in a homogenizer at 300 hz and crushed for 5 minutes, transferred to another EP, centrifuged at 12000 rpm for 2 minutes, the supernatant is discarded, BHI is resuspended to 200 μL, and a bacterial suspension is prepared for the subsequent use.
(5) Inoculation of bacterial solution: 10 μL of bacterial solution is taken and added dropwise to the characteristic culture medium (5 pieces in total). The characteristic culture medium is removed after cultivating in a three gas incubator at 37° C. for 36 hours, and the results are determined after leaving for 30 minutes; another 100 μL is taken and coated onto Colombian culture medium for the traditional bacterial culture.

[1] = clinical H. pylori strain FY-31
[2] = clinical H. pylori strain FY-43
[3] = clinical H. pylori strain FY-47
[4] = clinical H. pylori strain FY-52

Row | SMILES | drug resistance determined on characteristic culture medium [1] | drug resistance determined on characteristic culture medium [2] | drug resistance determined on characteristic culture medium [3] | drug resistance determined on characteristic culture medium [4]
1 | CC1(C)S[C@@H]2[C@H](NC(=O)[C@H](N)c3ccc(O)cc3)C(=O)N2[C@H]1C(=O)O [Amoxicillin, amoxicillin] | sensitive | sensitive | sensitive | sensitive
2 | CC[C@H]1OC(=O)[C@H](C)[C@@H](O[C@H]2C[C@@](C)(OC)[C@@H](O)[C@H](C)O2)[C@H](C)[C@@H](O[C@@H]2O[C@H](C)C[C@H](N(C)C)[C@H]2O)[C@](C)(OC)C[C@@H](C)C(=O)[C@H](C)[C@@H](O)[C@]1(C)O [Clarithromycin, clarithromycin] | sensitive | sensitive | sensitive | sensitive
3 | Cc1ncc([N+](=O)[O-])n1CCO [Metronidazole, metronidazole] | sensitive | sensitive | resistant | sensitive
